According to article PMC10336134, “Effects of dialkoxybenzenes against Varroa destructor and identification of 1-allyloxy-4-propoxybenzene as a promising acaricide candidate” (Scientific Reports, 2023):

Legend:
[1] = target: T1, Human expressed AChE (hAChE) (Homo sapiens, UniProt P22303); assay: Ellman assay, Michaelis-Menten kinetics with inhibitor; assay type: biochemical; conditions: acetylthiocholine; 0.5-3 mM compound; pH 7.6; competitive
T1 construct: recombinant, commercial lyophilized powder (Sigma C1682)

Honey bee AChE (AmAChE) = system: T2, Honey bee AChE (AmAChE); assay: Ellman assay; assay type: biochemical, Apis mellifera; conditions: no test compound; sodium phosphate pH 7.6, DTNB, ethanol/Tween 20; bee isolate; read-out: KM (× 10^-5 M)
T2 construct: gene AmAChE1; native isolate from nurse bees
From the text: Ellman assay on Honey bee AChE (AmAChE)

[2] = system: T3, Varroa destructor AChE (VdAChE); assay: Ellman assay, […] nm; assay type: biochemical; conditions: no test compound; sodium phosphate pH 7.6, DTNB, ethanol/Tween 20; mite extract; read-out: KM (× 10^-5 M)
T3 construct: native extract from pre-frozen mites

purified protein = substrate: CC(=O)SCC[N+](C)(C)C; assay: purified protein; assay type: biochemical, Homo sapiens; conditions: no test compound, sodium phosphate pH 7.6, DTNB, ethanol/Tween 20

Molecule: CCN(CC)C(=O)c1cccc(C)c1 [DEET]
- Ellman assay, Michaelis-Menten kinetics with inhibitor [1]: all three forms of the enzyme, hAChE, AmAChE and VdAChE, were competitively inhibited by DEET

Molecule: CC(=O)SCC[N+](C)(C)C [acetylthiocholine iodide]
- Km (Honey bee AChE (AmAChE)): 22 µM
- Km [2]: 14 µM

B1: Human expressed AChE (hAChE) (Homo sapiens) (protein)
chain: EGREDAELLVTVRGGRLRGIRLKTPGGPVSAFLGIPFAEPPMGPRRFLPPEPKQPWSGVVDATTFQSVCYQYVDTLYPGFEGTEMWNPNRELSEDCLYLNVWTPYPRPTSPTPVLVWIYGGGFYSGASSLDVYDGRFLVQAERTVLVSMNYRVGAFGFLALPGSREAPGNVGLLDQRLALQWVQENVAAFGGDPTSVTLFGESAGAASVGMHLLSPPSRGLFHRAVLQSGAPNGPWATVGMGEARRRATQLAHLVGCPPGGTGGNDTELVACLRTRPAQVLVNHEWHVLPQESVFRFSFVPVVDGDFLSDTPEALINAGDFHGLQVLVGVVKDEGSYFLVYGAPGFSKDNESLISRAEFLAGVRVGVPQVSDLAAEAVVLHYTDWLHPEDPARLREALSDVVGDHNVVCPVAQLAGRLAAQGARVYAYVFEHRASTLSWPLWMGVPHGYEIEFIFGIPLDPSRNYTAEEKIFAQRLMRYWANFARTGDPNEPRDPKAPQWPPYTAGAQQYVSLDLRPLEVRRGLRAQACAFWNRFLPKLLSATDTLDEAERQWKAEFHRWSSYMVHWKNQFDHYSKQDRCSDL
notes: recombinant, commercial lyophilized powder (Sigma C1682)
- Km (purified protein): (1.0 ± 0.2) × 10^-4 M
- Vmax (purified protein): 51 µM/min
